pIC50: −log10 of the molar value.

The source of these data is PMC6445242, “Novel tetrazole and cyanamide derivatives as inhibitors of cyclooxygenase-2 enzyme: design, synthesis, anti-inflammatory evaluation, ulcerogenic liability and docking study” (Journal of Enzyme Inhibition and Medicinal Chemistry, 2017).

One data set deals with T1, ovine COX-2 (Ovis aries, UniProt P79208).
T1 sequence (P79208 17-603): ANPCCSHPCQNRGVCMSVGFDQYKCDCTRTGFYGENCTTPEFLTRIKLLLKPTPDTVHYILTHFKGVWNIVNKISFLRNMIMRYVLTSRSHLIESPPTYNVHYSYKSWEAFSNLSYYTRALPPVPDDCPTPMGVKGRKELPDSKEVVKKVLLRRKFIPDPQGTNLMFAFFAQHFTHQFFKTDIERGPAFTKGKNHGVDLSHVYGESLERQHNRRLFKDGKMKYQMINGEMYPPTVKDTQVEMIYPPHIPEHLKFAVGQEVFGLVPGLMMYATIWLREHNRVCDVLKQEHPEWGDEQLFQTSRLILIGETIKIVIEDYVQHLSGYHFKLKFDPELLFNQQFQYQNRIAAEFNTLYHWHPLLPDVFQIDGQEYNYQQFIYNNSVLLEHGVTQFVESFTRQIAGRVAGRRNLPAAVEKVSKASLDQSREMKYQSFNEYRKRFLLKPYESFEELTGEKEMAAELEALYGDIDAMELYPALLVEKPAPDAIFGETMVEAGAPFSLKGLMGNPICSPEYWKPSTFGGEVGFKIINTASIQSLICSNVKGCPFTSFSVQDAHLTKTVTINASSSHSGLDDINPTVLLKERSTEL
The data set is described as follows: In vitro COX-2 inhibition assay (EIA kit, Cayman). Conditions: for pIC50: IC50 COX-2, ovine COX-2, mean of two determinations; for SI, COX-2 selectivity index (COX-1 IC50/COX-2 IC50): ovine enzymes.

Data set [1] relates to carrageenan-induced paw oedema. The data set is described as follows: Carrageenan-induced rat paw oedema. Format: in vivo. To be noted: 50 mg/kg oral; for %Inhibition of paw oedema, 1h / Paw thickness change mean ± SEM, 1h: 1 h after carrageenan; for %Inhibition of paw oedema, 3h / Paw thickness change mean ± SEM, 3h: 3 h after carrageenan; for Paw thickness change mean ± SEM, 3h / Paw thickness change mean ± SEM, 1h / Paw thickness change mean ± SEM, 5h: n = 4; for %Inhibition of paw oedema, 5h / Paw thickness change mean ± SEM, 5h: 5 h after carrageenan. On the procedure:
Female wister rats (150-200 g) were used in this study. The animals were kept at controlled conditions (temperature 23 ± 2 °C, humidity 60 ± 10%) and a 12/12-h light/dark cycle with access to food and water. All procedures relating to animal care and treatments were performed according to protocols approved by the Research Ethical Committee of Faculty of Pharmacy Beni-Suef University (2014-Beni-Suef, Egypt). The anti-inflammatory activity of the synthesised compounds was determined in vivo by […]-induced paw oedema method in rats[49]. Rats were divided into 21 groups of four animals each, and then, they were fasted overnight with free access to water before the experiment. Before any drug administration, thickness of the left hind paw of each rat was measured in millimetres. Group 1 served as a control and administered the vehicle (2.5% Tween 80).

The next data set has as its target T2, ovine COX-1 (Ovis aries, UniProt P05979).
T2 sequence (P05979 25-600): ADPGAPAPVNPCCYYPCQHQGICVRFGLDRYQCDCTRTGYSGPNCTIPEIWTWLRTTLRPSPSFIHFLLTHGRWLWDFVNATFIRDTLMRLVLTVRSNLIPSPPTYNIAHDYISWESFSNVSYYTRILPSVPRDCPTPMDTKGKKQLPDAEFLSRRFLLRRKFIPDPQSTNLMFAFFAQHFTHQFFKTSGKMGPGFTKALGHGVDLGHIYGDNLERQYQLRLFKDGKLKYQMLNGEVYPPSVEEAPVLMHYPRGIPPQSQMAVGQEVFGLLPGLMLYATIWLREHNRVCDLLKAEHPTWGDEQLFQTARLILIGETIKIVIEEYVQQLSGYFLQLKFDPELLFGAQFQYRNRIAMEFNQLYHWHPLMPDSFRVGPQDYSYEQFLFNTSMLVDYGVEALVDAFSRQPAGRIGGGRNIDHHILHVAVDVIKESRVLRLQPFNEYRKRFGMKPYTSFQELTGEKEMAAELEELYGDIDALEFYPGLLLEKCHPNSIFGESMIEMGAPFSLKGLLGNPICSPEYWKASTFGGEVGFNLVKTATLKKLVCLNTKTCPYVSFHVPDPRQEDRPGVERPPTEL
Kind of data set: In vitro COX-1 inhibition assay (EIA kit, Cayman).

Protocol for ovine COX-1: (§1) The peroxidase activity of cyclooxygenase enzyme isoforms was measured using the COX activity assay kit. The ability of the test compounds to inhibit both ovine COX-1 and COX-2 enzymes was explored in vitro using a colorimetric enzyme immunoassay (EIA) kit. The appearance of oxidised N,N,N′,N′-tetramethyl-p-phenylenediamine (TMPD) was monitored at 590 nm. The kit includes isozyme-specific inhibitors for distinguishing COX-2 activity from that of COX-1.
Protocol for ovine COX-2: as §1

With `COc1ccc(/C=C/C(=O)c2ccc(-n3cnnn3)cc2)cc1OC` [Compound 3a, (ZE)-1-[4-(1H-Tetrazol-1-yl)phenyl]-3-(3,4-dimethoxyphenyl)prop-2-en-1-one], the melting point is 214 to 216 °C. Also, at ovine COX-2, the pIC50 was 6.24 and the “SI, COX-2 selectivity index (COX-1 IC50/COX-2 IC50)” value is listed as 22. In data set [1], the “%Inhibition of paw oedema, 1h” value worked out at 25%; the “%Inhibition of paw oedema, 3h” value is given as 9%; the “Paw thickness change mean ± SEM, 3h” value came to 1.53 ± 0.09 mm. This compound gave a pIC50 against ovine COX-1 of 4.90.
`COc1cc(/C=C/C(=O)c2ccc(-n3cnnn3)cc2)cc(OC)c1OC` [Compound 3b, (ZE)-1-[4-(1H-Tetrazol-1-yl)phenyl]-3-(3,4,5-trimethoxyphenyl)prop-2-en-1-one] displayed a melting point of 215 to 217 °C. Moreover, on ovine COX-2, the pIC50 is 6.62 and the “SI, COX-2 selectivity index (COX-1 IC50/COX-2 IC50)” value amounted to 28.08. For the same compound, in data set [1], the “%Inhibition of paw oedema, 1h” value is 54%; the “Paw thickness change mean ± SEM, 1h” value is listed as 0.73 ± 0.08 mm; the “%Inhibition of paw oedema, 3h” value turned out to be 13%; the “Paw thickness change mean ± SEM, 3h” value was found to be 1.45 ± 0.18 mm. In addition, in data set [1], the “%Inhibition of paw oedema, 5h” value turned out to be 0% and the “Paw thickness change mean ± SEM, 5h” value is given as 1.33 ± 0.08 mm. The compound also gave a pIC50 against ovine COX-1 of 5.17.
On to `N#Cc1c(-c2ccccc2)cc(-c2ccc(-n3cnnn3)cc2)nc1N` [Compound 4a, 6-[4-(1H-Tetrazol-1-yl)phenyl]-2-amino-4-phenylnicotinonitrile], for which the melting point lay in the range of 238 to 240 °C. In addition, on ovine COX-2, the pIC50 was 6.37 and the “SI, COX-2 selectivity index (COX-1 IC50/COX-2 IC50)” value is 14.48. Besides, in data set [1], the “%Inhibition of paw oedema, 1h” value was 51%; the “Paw thickness change mean ± SEM, 1h” value came out at 0.78 ± 0.08 mm; the “%Inhibition of paw oedema, 3h” value amounted to 10%; the “Paw thickness change mean ± SEM, 3h” value is recorded as 1.50 ± 0.19 mm. For the same compound, in data set [1], the “%Inhibition of paw oedema, 5h” value turned out to be 0% and the “Paw thickness change mean ± SEM, 5h” value is recorded as 1.33 ± 0.05 mm. Besides, the pIC50 against ovine COX-1 was 5.21.
Compound `N#Cc1c(-c2cccnc2)cc(-c2ccc(-n3cnnn3)cc2)nc1N` [Compound 4b, 6′-[4-(1H-Tetrazol-1-yl)phenyl]-2′-amino-[3,4′-bipyridine]-3′-carbonitrile] displayed a melting point of 238 to 240 °C. Further, at ovine COX-2, the pIC50 was 6.57 and the “SI, COX-2 selectivity index (COX-1 IC50/COX-2 IC50)” value was 22.62. In addition, in data set [1], the “%Inhibition of paw oedema, 1h” value was determined as 19%; the “Paw thickness change mean ± SEM, 1h” value is 1.28 ± 0.10 mm; the “%Inhibition of paw oedema, 3h” value is given as 9%; the “Paw thickness change mean ± SEM, 3h” value is 1.53 ± 0.08 mm. Moreover, in data set [1], the “%Inhibition of paw oedema, 5h” value was found to be 4% and the “Paw thickness change mean ± SEM, 5h” value was 1.28 ± 0.14 mm. For the same compound, the pIC50 against ovine COX-1 is 5.21.
In turn, `N#Cc1c(-c2cccnc2)cc(-c2ccc(-n3cnnn3)cc2)nc1O` [Compound 5b, 6′-[4-(1H-Tetrazol-1-yl)phenyl]-2′-hydroxy-[3,4′-bipyridine]-3′-carbonitrile] registered a melting point of 287 to 289 °C. Further, at ovine COX-2, the negative-log IC50 (pIC50) is 5.94 and the “SI, COX-2 selectivity index (COX-1 IC50/COX-2 IC50)” value was found to be 10.88. For the same compound, in data set [1], the “%Inhibition of paw oedema, 1h” value is listed as 38%; the “Paw thickness change mean ± SEM, 1h” value worked out at 0.98 ± 0.18 mm; the “%Inhibition of paw oedema, 3h” value is 33%; the “Paw thickness change mean ± SEM, 3h” value is given as 1.13 ± 0.15 mm. In addition, in data set [1], the “%Inhibition of paw oedema, 5h” value is 17% and the “Paw thickness change mean ± SEM, 5h” value was determined as 1.10 ± 0.15 mm. This compound also had a pIC50 on ovine COX-1 of 4.91.
Take `COc1ccc(-c2cc(-c3ccc(-n4cnnn4)cc3)[nH]c(=O)c2C#N)cc1` [Compound 5c, 6-[4-(1H-Tetrazol-1-yl)phenyl]-4-(4-methoxyphenyl)-2-oxo-1,2-dihydropyridine-3-carbonitrile]: the melting point was more than 300 °C. For the same compound, on ovine COX-2, the pIC50 is 6.15 and the “SI, COX-2 selectivity index (COX-1 IC50/COX-2 IC50)” value was determined as 15.81. For the same compound, in data set [1], the “%Inhibition of paw oedema, 1h” value was 57%; the “Paw thickness change mean ± SEM, 1h” value is on record as 0.68 ± 0.09 mm; the “%Inhibition of paw oedema, 3h” value was found to be 30%; the “Paw thickness change mean ± SEM, 3h” value was 1.18 ± 0.11 mm. For the same compound, in data set [1], the “%Inhibition of paw oedema, 5h” value came out at 14% and the “Paw thickness change mean ± SEM, 5h” value was found to be 1.15 ± 0.05 mm. Also, the pIC50 against ovine COX-1 is 4.95.
For `C/C(=N\Nc1ccc(S(C)(=O)=O)cc1)c1ccc(-n2cnnn2)cc1` [Compound 6a, (ZE)-1-{4-[1-(2-(4-Methanesulphonylphenyl)hydrazono)ethyl]phe-nyl}-1H-tetrazole], the melting point is 258 to 260 °C. At ovine COX-2, the pIC50 is 6.42 and the “SI, COX-2 selectivity index (COX-1 IC50/COX-2 IC50)” value was 24.23. In addition, in data set [1], the “%Inhibition of paw oedema, 1h” value amounted to 30%; the “Paw thickness change mean ± SEM, 1h” value was 1.10 ± 0.23 mm; the “%Inhibition of paw oedema, 3h” value was 42%; the “Paw thickness change mean ± SEM, 3h” value is given as 0.98 ± 0.23 mm. In data set [1], the “%Inhibition of paw oedema, 5h” value came out at 4% and the “Paw thickness change mean ± SEM, 5h” value was 1.28 ± 0.08 mm. Besides, the pIC50 against ovine COX-1 was 5.04.
The compound `C/C(=N\Nc1ccc(S(N)(=O)=O)cc1)c1ccc(-n2cnnn2)cc1` [Compound 6b] had a melting point of 255 to 257 °C. Moreover, at ovine COX-2, the pIC50 is 6.29 and the “SI, COX-2 selectivity index (COX-1 IC50/COX-2 IC50)” value is 25.27. In addition, in data set [1], the “Paw thickness change mean ± SEM, 1h” value turned out to be 0.80 ± 0.26 mm; the “%Inhibition of paw oedema, 3h” value worked out at 37%; the “Paw thickness change mean ± SEM, 3h” value worked out at 1.05 ± 0.09 mm; the “%Inhibition of paw oedema, 5h” value stood at 12%. For the same compound, in data set [1], the “Paw thickness change mean ± SEM, 5h” value is reported as 1.18 ± 0.13 mm. At ovine COX-1, this compound showed a pIC50 of 4.89.
With `COc1ccc(/C=C/C(=O)c2ccc(NC#N)cc2)cc1OC` [Compound 7a, (ZE)-N-{4-[3–(3,4-Dimethoxyphenyl)acryloyl]phenyl}cyanamide], the melting point fell in the range of 112 to 114 °C. For the same compound, on ovine COX-2, the pIC50 was 6.59 and the “SI, COX-2 selectivity index (COX-1 IC50/COX-2 IC50)” value turned out to be 13.26. Further, in data set [1], the “%Inhibition of paw oedema, 1h” value came out at 24%; the “Paw thickness change mean ± SEM, 1h” value amounted to 1.20 ± 0.11 mm; the “%Inhibition of paw oedema, 3h” value turned out to be 22%; the “Paw thickness change mean ± SEM, 3h” value is reported as 1.30 ± 0.15 mm. In addition, in data set [1], the “%Inhibition of paw oedema, 5h” value worked out at 0% and the “Paw thickness change mean ± SEM, 5h” value is given as 1.33 ± 0.08 mm. On ovine COX-1, the pIC50 is 5.46.
Compound `COc1cc(/C=C/C(=O)c2ccc(NC#N)cc2)cc(OC)c1OC` [Compound 7b, (ZE)-N-{4-[3–(3,4,5-Trimethoxyphenyl)acryloyl]phenyl}cyanamide] had a melting point of 109 to 111 °C. Also, at ovine COX-2, the pIC50 is 6.62 and the “SI, COX-2 selectivity index (COX-1 IC50/COX-2 IC50)” value is on record as 14.66. In data set [1], the “%Inhibition of paw oedema, 1h” value was determined as 32%; the “Paw thickness change mean ± SEM, 1h” value is given as 1.08 ± 0.11 mm; the “%Inhibition of paw oedema, 3h” value stood at 43%; the “Paw thickness change mean ± SEM, 3h” value came to 0.95 ± 0.17 mm. In addition, in data set [1], the “%Inhibition of paw oedema, 5h” value came out at 0% and the “Paw thickness change mean ± SEM, 5h” value is recorded as 1.33 ± 0.08 mm. For the same compound, the pIC50 on ovine COX-1 was 5.45.
